US10875876B2, “Cyclized sulfamoylarylamide derivatives and the use thereof as medicaments for the treatment of hepatitis B” (priority 2015, dated 2020)
Where two headings read alike, the source gives them in different places.

Key:
HBV = test: anti HBV activity, HepG2.117 cell line, intracellular HBV DNA by realtime PCR; format: cell-based; conditions: HepG2.117 cell line (Tet-off), 3 days of treatment, intracellular HBV DNA quantified by realtime PCR, read-out: HBV-AVE-HepG2.117 EC50
Summary of the method: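 HepG2.117 cells, a Tet-off line that replicates HBV without doxycycline, were induced and then treated in duplicate with serially diluted compound. After 3 days, intracellular HBV DNA was quantified by real-time PCR with an HBV-specific primer set and probe.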

[1] = Cytotoxicity in HepG2 cells, Resazurin assay; conditions: human, HepG2 cells, TOX-HepG2-4 d CC50 (μM), HepG2 cells incubated for 4 days, viability by Resazurin assay
[2] = Hepatitis B virus, HepG2.117, 72 h

SMILES | EC50 (HBV; [2]) [nM] | CC50 at 4 days [1] [µM] | EC50 (HBV) [nM]
C[C@H]1CCc2c(cn(C)c2C(=O)Nc2ccnc(C(F)(F)F)c2)S(=O)(=O)N1 (single isomer, unassigned) [Compound 53, (3*S)-3,7-dimethyl-1,1-dioxo-N-[2-(trifluoromethyl)-4-pyridyl]-2,3,4,5-tetrahydropyrrolo[3,4-f]thiazepine-6-carboxamide] | 190 | > 25 | –
C[C@H](O)[C@@H]1COc2c(cn(C)c2C(=O)Nc2ccc(F)c(F)c2)S(=O)(=O)N1 [Compound 37, (3S)—N-(3,4-difluorophenyl)-3-[(1S)-1-hydroxyethyl]-7-methyl-1,1-dioxo-3,4-dihydro-2H-pyrrolo[3,4-b][1,4,5]oxathiazepine-6-carboxamide] | 200 | > 25 | –
CC1CCC/C=C/Cc2c(cn(C)c2C(=O)Nc2ccc(F)c(F)c2)S(=O)(=O)N1 (stereo not drawn) [Compound 2b, 8E-N-(3,4-difluorophenyl)-4,13-dimethyl-2,2-dioxo-2λ^6-thia-3,13-diazabicyclo[9.3.0]tetradeca-1(14),8,11-triene-12-carboxamide] | 490 | > 25 | –
CC1C=Cc2c(cn(C)c2C(=O)Nc2ccc(F)c(F)c2)S(=O)(=O)N1 (single isomer, unassigned) [Compound 7a, N-(3,4-difluorophenyl)-3,7-dimethyl-1,1-dioxo-2,3-dihydropyrrolo-[3,4-f]thiazepine-6-carboxamide] | – | > 25 | 130
Cc1cc(NC(=O)c2c3c(cn2C)S(=O)(=O)N[C@@H]([C@H](C)O)C=C3)ccc1F [Compound 99, (3R)—N-(4-fluoro-3-methyl-phenyl)-3-[(1S)-1-hydroxyethyl]-7-methyl-1,1-dioxo-2,3-dihydropyrrolo[3,4-f]thiazepine-6-carboxamide] | 4 | > 25 | –
C[C@H](O)[C@H]1C=Cc2c(cn(C)c2C(=O)Nc2ccc(F)c(F)c2)S(=O)(=O)N1 [Compound 84, (3R)—N-(3,4-difluorophenyl)-3-[(1S)-1-hydroxyethyl]-7-methyl-1,1-dioxo-2,3-dihydropyrrolo[3,4-f]thiazepine-6-carboxamide] | 10 | > 25 | –
C[C@H]1NS(=O)(=O)c2cn(C)c(C(=O)Nc3ccc(F)c(F)c3)c2O[C@@H]1C [compound 231] | > 500 | > 25 | –
Cn1cc2c(c1C(=O)Nc1ccc(F)c(C#N)c1)OCC(C)(C)NS2(=O)=O [Compound 135, N-(3-cyano-4-fluoro-phenyl)-3,3,7-trimethyl-1,1-dioxo-2,4-dihydropyrrolo[3,4-b][1,4,5]oxathiazepine-6-carboxamide] | 5 | > 25 | –
Cn1cc2c(c1C(=O)Nc1ccc(F)c(F)c1)OC[C@@H](C1(O)CC1)NS2(=O)=O [Compound 196, (3S)—N-(3,4-difluorophenyl)-3-(1-hydroxycyclopropyl)-7-methyl-1,1-dioxo-3,4-dihydro-2H-pyrrolo[3,4-b][1,4,5]oxathiazepine-6-carboxamide] | 65 | > 25 | –
Cc1cc(NC(=O)c2c3c(cn2C)S(=O)(=O)N[C@@H](C(O)C2CC2)CO3)ccc1F (single isomer, unassigned) [Compound 206a, 3-[cyclopropyl(hydroxy)methyl]-N-(4-fluoro-3-methyl-phenyl)-7-methyl-1,1-dioxo-3,4-dihydro-2H-pyrrolo[3,4-b][1,4,5]oxathiazepine-6-carboxamide] | 13 | > 25 | –
Cn1cc2c(c1C(=O)Nc1ccc(F)c(F)c1)OCC(C(O)c1ccccn1)NS2(=O)=O (stereo not drawn) [Compound 141a, N-(3,4-difluorophenyl)-3-[hydroxy(2-pyridyl)methyl]-7-methyl-1,1-dioxo-3,4-dihydro-2H-pyrrolo[3,4-b][1,4,5]oxathiazepine-6-carboxamide] | 30 | > 25 | –
C[C@H]1CCc2c(cn(C)c2C(=O)Nc2ccnc(C(F)F)c2)S(=O)(=O)N1 [Compound 165, (3S)—N-[2-(difluoromethyl)-4-pyridyl]-3,7-dimethyl-1,1-dioxo-2,3,4,5-tetrahydropyrrolo[3,4-f]thiazepine-6-carboxamide] | 68 | > 25 | –
C[C@H](O)[C@H]1COc2c(cn(C)c2C(=O)Nc2ccc(F)c(F)c2)S(=O)(=O)N1 [Compound 35, (3R)—N-(3,4-difluorophenyl)-3-[(1S)-1-hydroxyethyl]-7-methyl-1,1-dioxo-3,4-dihydro-2H-pyrrolo[3,4-b][1,4,5]oxathiazepine-6-carboxamide] | 12 | > 25 | –
C[C@H](O)[C@H]1C=Cc2c(cn(C)c2C(=O)Nc2ccc(F)c(C(F)F)c2F)S(=O)(=O)N1 [Compound 186, (3R)—N-[3-(difluoromethyl)-2,4-difluoro-phenyl]-3-[(1S)-1-hydroxyethyl]-7-methyl-1,1-dioxo-2,3-dihydropyrrolo[3,4-f]thiazepine-6-carboxamide] | 11 | > 25 | –
Cn1cc2c(c1C(=O)Nc1ccc(F)c(F)c1)OC[C@@H]([C@@H](O)c1ccccc1)NS2(=O)=O [Compound 63, (3S)—N-(3,4-difluorophenyl)-3-[(S)-hydroxy(phenyl)methyl]-7-methyl-1,1-dioxo-3,4-dihydro-2H-pyrrolo[3,4-b][1,4,5]oxathiazepine-6-carboxamide] | 240 | > 25 | –
C[C@@H]1Oc2c(cn(C)c2C(=O)Nc2ccc(F)c(C(F)F)c2)S(=O)(=O)N[C@@H]1CO [compound 234] | > 500 | > 25 | –
Cn1cc2c(c1C(=O)Nc1ccc(F)c(F)c1)OCC1(CC1)NS2(=O)=O [Compound 19, N-(3,4-difluorophenyl)-7-methyl-1,1-dioxo-spiro[2,4-dihydropyrrolo-[3,4-b][1,4,5]oxathiazepine-3,1′-cyclopropane]-6-carboxamide] | 190 | > 25 | –
Cn1cc2c(c1C(=O)Nc1ccc(F)c(C(F)F)c1)CCC(C(C)(C)O)NS2(=O)=O (single isomer, unassigned) [Compound 150a, N-[3-(difluoromethyl)-4-fluoro-phenyl]-3-(1-hydroxy-1-methyl-ethyl)-7-methyl-1,1-dioxo-2,3,4,5-tetrahydropyrrolo[3,4-f]thiazepine-6-carboxamide] | – | > 25 | > 125
Cn1cc2c(c1C(=O)Nc1ccc(F)c(F)c1)OC[C@H]([C@H](O)c1ccccc1)NS2(=O)=O [Compound 36, (3R)—N-(3,4-difluorophenyl)-3-[(R)-hydroxy(phenyl)methyl]-7-methyl-1,1-dioxo-3,4-dihydro-2H-pyrrolo[3,4-b][1,4,5]oxathiazepine-6-carboxamide] | 5 | > 25 | –
Cn1cc2c(c1C(=O)Nc1cc(F)c(F)c(F)c1)CCC1(COC1)NS2(=O)=O [Compound 136, 7-methyl-1,1-dioxo-N-(3,4,5-trifluorophenyl)spiro[4,5-dihydro-2H-pyrrolo[3,4-f]thiazepine-3,3′-oxetane]-6-carboxamide] | 16 | > 25 | –
C[C@H]1C=Cc2c(cn(C)c2C(=O)Nc2ccc(F)c(C(F)F)c2)S(=O)(=O)N1 (single isomer, unassigned) [Compound 51, (3*S)—N-[3-(difluoromethyl)-4-fluoro-phenyl]-3,7-dimethyl-1,1-dioxo-2,3-dihydropyrrolo[3,4-f]thiazepine-6-carboxamide] | < 2 | > 25 | –
